Columns and labels:
U2OS cells [1] = assay: Annexin V apoptotic assay; format: cell-based; details: CPT 100 μM for the last 2 h
Description: (§1) Given these promising findings, we further investigated the specificity of MU262 and MU876 and potential short-term cytotoxicity. To mirror the treatment duration used in BIR and HR assays, U2OS cells were exposed to the inhibitors or siRNA for 3 days.
U2OS WT cells (300,000) were seeded in a 6-well plate, a subset of them was treated with either control siRNA or siRNA targeting MUS81. After adhesion, cells were treated with the respective inhibitors for 72 h during which CPT (100 μM, Sigma-Aldrich) was added for the last 2 h. Cells were harvested, washed in ice-cold PBS, and collected by centrifugation at 500g for 5 min. Cells were simultaneously stained with FITC-labeled annexin V antibody (556419, Becton Dickinson) and PI (5 μL) at room temperature for 15 min, protected from light. Stained cells were analyzed using a BD FACSVerse flow cytometer (Becton Dickinson) and FlowJo software (BD Life Sciences). At least 20,000 cells were used for each measurement, and experiments were performed in duplicates.

U2OS cells [2] = assay: EdU/PI cell cycle assay; format: cell-based; details: CPT 100 μM for the last 16 h
Description: as §1
U2OS WT cells (300,000) were seeded in a 6-well plate; a subset of them was treated with either control siRNA or siRNA targeting MUS81. After adhesion, cells were treated with the respective inhibitors for 72 h during which CPT ([…], Sigma-Aldrich) was added for the last 16 h and 10 μM EdU (Sigma-Aldrich) was added for the last 1 h. Cells were then harvested and stained by using the Click-iT EdU Alexa Fluor 647 Flow Cytometry Assay Kit (Thermo Fisher Scientific). Finally, cells were resuspended in 1xPBS containing 5 μg/mL of propidium iodide (PI) and analyzed using a BD FACSVerse flow cytometer (Becton Dickinson) and FlowJo software (BD Life Sciences). At least 20,000 cells were used for each measurement, and experiments were performed in duplicates.

MUS81–EME1 = target: T1, MUS81–EME1 (Homo sapiens, UniProt Q96NY9); assay: Gel-based in vitro nuclease assay: cleavage of 3′flap DNA by purified MUS81–EME1; format: biochemical; details: for activity in the in vitro assay: negative control compounds
T1 construct: The MUS81–EME1 full-length expression plasmid was obtained from Stephen C; West; made in house; host or cells: Escherichia coli
T1 sequence (Q96NY9 1-551): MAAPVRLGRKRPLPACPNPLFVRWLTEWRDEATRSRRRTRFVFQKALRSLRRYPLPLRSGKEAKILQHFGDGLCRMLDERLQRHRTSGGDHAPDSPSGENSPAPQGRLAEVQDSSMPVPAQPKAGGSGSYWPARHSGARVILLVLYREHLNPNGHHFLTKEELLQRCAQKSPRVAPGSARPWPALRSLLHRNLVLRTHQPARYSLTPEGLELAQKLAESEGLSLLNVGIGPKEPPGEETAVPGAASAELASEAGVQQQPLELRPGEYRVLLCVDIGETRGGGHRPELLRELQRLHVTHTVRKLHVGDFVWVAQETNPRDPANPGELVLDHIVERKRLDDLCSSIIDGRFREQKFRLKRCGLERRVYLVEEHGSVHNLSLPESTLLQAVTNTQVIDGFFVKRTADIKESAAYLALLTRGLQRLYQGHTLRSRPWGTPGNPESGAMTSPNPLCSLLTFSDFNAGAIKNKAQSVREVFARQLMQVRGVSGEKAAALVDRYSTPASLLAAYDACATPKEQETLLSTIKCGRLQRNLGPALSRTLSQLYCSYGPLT
T1 sequence (Q96AY2 1-570 partner): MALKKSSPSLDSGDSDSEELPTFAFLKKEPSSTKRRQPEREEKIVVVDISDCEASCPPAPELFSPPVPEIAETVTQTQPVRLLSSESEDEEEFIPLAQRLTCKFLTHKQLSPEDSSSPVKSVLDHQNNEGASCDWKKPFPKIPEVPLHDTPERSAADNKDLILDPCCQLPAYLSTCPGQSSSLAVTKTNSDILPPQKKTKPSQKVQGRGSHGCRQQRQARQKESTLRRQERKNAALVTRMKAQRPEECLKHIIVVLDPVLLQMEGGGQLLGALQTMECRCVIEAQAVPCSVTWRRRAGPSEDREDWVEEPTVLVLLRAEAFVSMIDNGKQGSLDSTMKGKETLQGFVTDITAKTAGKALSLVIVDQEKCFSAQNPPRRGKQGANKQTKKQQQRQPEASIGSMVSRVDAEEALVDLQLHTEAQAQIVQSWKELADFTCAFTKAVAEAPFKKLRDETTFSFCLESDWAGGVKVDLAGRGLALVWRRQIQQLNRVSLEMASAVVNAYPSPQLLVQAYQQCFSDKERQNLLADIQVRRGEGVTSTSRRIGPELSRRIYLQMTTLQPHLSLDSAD
Description: To identify the small-molecule inhibitors of MUS81, we used two complementary screening approaches. The first involved a structure-based virtual screening, where over 140,000 small molecules were docked into the active site of MUS81 using AutoDock Vina software. […] The cleavage by purified MUS81-EME1 was monitored by gel electrophoresis, and the compound activity was quantified by measuring the reduction in cleavage product intensity.
Nuclease assays were performed in reaction buffer containing 50 mM Tris pH 7.5, 10 mM MgCl2, 1 mM DTT, 85 mM KCl, and 20% glycerol. Purified MUS81–EME1 (1 nM) was preincubated in 9 μL reaction with indicated concentrations of inhibitors for 15 min at room temperature, followed by the addition of 3 nM of a 3′flap DNA substrate (listed in Supplementary Table 9) and a further incubation for 15 min at 37 °C. The final concentration of DMSO in the reactions was 2%. The reactions were stopped by the addition of 0.1% SDS and 500 μg/mL of proteinase K, followed by incubation for 5 min at 37 °C. […] The fluorescent DNA was visualized using a FLA-9000 (Fujifilm). Bands corresponding to cleaved substrates were selected for quantification using the MultiGauge 3.2 software. Final data represent integrated density of these bands with background subtraction. Fitting of the data with sigmoid curves was performed in OriginPro (OriginLab).

[3] = Solubility in aqueous DMSO; format: physicochemical
[4] = target: T2, MUS81–EME1 binding to 3′ flap DNA substrate (Homo sapiens, UniProt Q96NY9); assay: Electrophoretic mobility shift assay (EMSA); details: MUS81–EME1 160 nM, no MgCl2
T2 construct: The MUS81–EME1 full-length expression plasmid was obtained from Stephen C; West; made in house; host or cells: Escherichia coli
T2 sequence (Q96NY9 1-551): T1 sequence (Q96NY9 1-551)
T2 sequence (Q96AY2 1-570 partner): T1 sequence (Q96AY2 1-570 partner)

SMILES	IC50 (MUS81–EME1; Table 1, in vitro) [µM]	IC50 (MUS81–EME1; Table 2, in vitro) [µM]	also measured
CC[C@@]1(O)C(=O)OCc2c1cc1n(c2=O)Cc2cc3ccccc3nc2-1 [CPT, camptothecin, reference compound]	–	–	apoptosis (Annexin V staining) (U2OS cells [1]): robust apoptosis; cell cycle profile (U2OS cells [2]): reduced the proportion of S phase cells
Nc1c(-c2nc3ccccc3[nH]2)nnc2ccnn12 [Compound 3]	> 50	–	–
Nc1c(-c2nc3ccccc3[nH]2)nnc2c(-c3ccc(F)cc3)cnn12 [Compound 4]	> 50	–	–
CCc1cc2nnc(-c3nc4ccccc4[nH]3)c(N)n2n1 [Compound 5]	> 5	–	–
CCc1nn2c(N)c(-c3nc4ccccc4[nH]3)nnc2c1-c1ccc(OC)cc1 [Compound 7]	> 25	–	–
Nc1c(-c2nc3ccccc3[nH]2)nnc2cc(-c3cccc4ccccc34)nn12 [Compound 12]	1.8	–	solubility in aqueous DMSO [3]: only sparingly soluble in aqueous DMSO
Nc1c(-c2nc3ccccc3[nH]2)nnc2cc(-c3ccccc3Oc3ccccc3)nn12 [Compound 13]	–	–	solubility in aqueous DMSO [3]: only sparingly soluble in aqueous DMSO
Nc1c(-c2nc3ccccc3[nH]2)nnc2cc(-c3ccc4ccccc4c3)nn12 [Compound 14]	–	–	solubility in aqueous DMSO [3]: only sparingly soluble in aqueous DMSO
Nc1c(-c2nc3ccccc3[nH]2)nnc2cc(-c3ccccc3)nn12 [Compound 15]	–	–	solubility in aqueous DMSO [3]: only sparingly soluble in aqueous DMSO
CCc1nn2cc(-c3nc4ccccc4[nH]3)nnc2c1-c1ccc(F)cc1 [Compound 16]	> 10	–	–
CCc1nn2c(C)c(-c3nc4ccccc4[nH]3)nnc2c1-c1ccc(F)cc1 [Compound 17]	> 10	–	activity in the in vitro assay (MUS81–EME1): no activity; effect on MUS81–EME1 binding to 3′ flap DNA (EMSA) [4]: neither MU262 nor its inactive analogue MU1066 disrupted the MUS81–DNA interaction
CCc1nn2c(O)c(-c3ncccn3)nnc2c1-c1ccc(F)cc1 [Compound 20]	> 40	–	–
CCc1nn2c(N)c(C(N)=O)nnc2c1-c1ccc(F)cc1 [Compound 21]	> 50	–	–
CCc1nn2c(N)c(-c3nc4ccccc4n3Cc3ccccc3)nnc2c1-c1ccc(F)cc1 [Compound 22]	8	–	–
CCc1nn2c(O)c(-c3nc4ccccc4n3CCN(C)C)nnc2c1-c1ccc(F)cc1 [Compound 23]	> 10	–	–
CCc1nn2c(O)c(-c3nc4ccccc4n3CCN3CCOCC3)nnc2c1-c1ccc(F)cc1 [Compound 24]	> 10	–	–
CCc1nn2c(O)c(-c3nccn3C)nnc2c1-c1ccc(F)cc1 [Compound 25]	> 40	–	activity in the in vitro assay (MUS81–EME1): no activity
CCc1nn2c(N)c(-c3ncc[nH]3)nnc2c1-c1ccc(F)cc1 [Compound 27]	–	–	solubility in aqueous DMSO [3]: less soluble in aqueous DMSO
Cc1cc(=O)[nH]c(-n2nc(-c3ccccc3)cc2N(C)C(=O)c2cc(-c3ccccc3)on2)n1 [Compound 45]	–	> 10	activity in the in vitro assay (MUS81–EME1): no activity; effect on MUS81–EME1 binding to 3′ flap DNA (EMSA) [4]: no significant effect

Continued, in another order:

IC50 (MUS81–EME1; Table 1, in vitro) [µM]	IC50 (MUS81–EME1; Table 2, in vitro) [µM]	SMILES	also measured
–	> 10	Cc1cc(=O)[nH]c(-n2nc(C3CCCCC3)cc2NC(=O)c2cc(-c3ccccc3)on2)n1 [Compound 34]	–
–	> 10	Cc1cc(=O)[nH]c(-n2nc(-c3ccccc3)c(C)c2NC(=O)c2cc(-c3ccccc3)on2)n1 [Compound 35]	–
–	> 10	Cc1cc(=O)[nH]c(-n2nc(-c3ccccc3)cc2NC(=O)c2cc(C3CCCCC3)on2)n1 [Compound 37]	–
–	> 10	Cc1cc(=O)[nH]c(-n2nc(-c3ccccc3)cc2NC(=O)c2cc(-c3ccccc3Br)on2)n1 [Compound 38]	–
–	> 10	COc1ccc(-c2cc(C(=O)Nc3cc(-c4ccccc4)nn3-c3nc(C)cc(=O)[nH]3)no2)cc1 [Compound 40]	–
–	> 10	Cc1cc(=O)[nH]c(-n2nc(-c3ccccc3)cc2NC(=O)c2csc(-c3ccccc3)n2)n1 [Compound 42]	–
–	> 10	Cn1nc(-c2ccccc2)cc1NC(=O)c1cc(-c2ccccc2)on1 [Compound 46]	–
–	> 10	O=C(Nc1cc(-c2ccccc2)nn1-c1ccccc1)c1cc(-c2ccccc2)on1 [Compound 47]	–
–	> 10	O=C(Nc1cc(-c2ccccc2)nn1-c1ncccn1)c1cc(-c2ccccc2)on1 [Compound 48]	–
–	> 10	COc1cc(C)nc(-n2nc(-c3ccccc3)cc2NC(=O)c2cc(-c3ccccc3)on2)n1 [Compound 49]	–
–	> 10	COCc1cc(=O)[nH]c(-n2nc(-c3ccccc3)cc2NC(=O)c2cc(-c3ccccc3)on2)n1 [Compound 51]	–
